This note sets out measurements from patent US5863918A, “Naphthalene derivatives” (Fujisawa Pharmaceutical Co., Ltd., priority 1994, dated 1999).

Counter-ions that a name gives are not always drawn.

The test system of assay [1] is human platelet aggregation induced by ADP. Put plainly: Inhibition of human platelet aggregation induced by ADP. As to conditions: ADP 2.5 μM, platelet rich plasma, mean ± S.E. The format is cell-based. As to the method: Human blood was obtained from healthy volunteers and mixed with 1/10 volume of 3.8% sodium citrate, pH 7.4. The citrate blood was centrifuged at 150×g for 10 minutes and the platelet rich plasma (PRP) was removed. The remaining blood was centrifuged for a further 10 minutes at 1500×g to prepare the platelet poor plasma (PPP), which was used as a reference for platelet aggregation. Aggregation studies were carried out using HEMATRACER 801 (NBS, Japan), a 8 channel aggregometer. 25 μl of sample solution and 225 μl of PRP were mixed and stirred at 1000 rpm for 2 minutes at 37° C. Aggregation was induced by ADP solution at the final concentration of 2.5 μM.

The test system of assay [2] is mean arterial blood pressure in conscious rats. In words: Effect on mean arterial blood pressure in conscious rats. As to conditions: 10 mg/kg; intravenous (femoral vein). The format is in vivo, rat (male Sprague-Dawley). As to the method:
Male Sprague-Dawley rats, aged 8-9 weeks, were anesthetized with ether. A polyethylene cannula filled with heparin solution was inserted into the femoral artery of the rats to measure mean blood pressure. Mean blood pressure was measured with a pressure transducer and recorded on a polygraph. The test compound dissolved in ethanol, polyethylene glycol and distilled water (1:1:1) was administered through a polyethylene cannula inserted into the femoral vein in a volume of 1 ml/kg. Intravenous hypotensive effect of the test compound was expressed as the maximal decrease (R max). Briefly, R max was expressed as maximal % change compared to mean blood pressure prior to the administration of the test compound.

Another assay concerns human IP receptor. In words: Receptor binding assay ([^3 H]-iloprost binding to human IP receptor expressed in COS7). To be noted: test compound 1×10^-6 M; 10 nM [^3 H]-iloprost; 60 minutes, 30° C. As to the method:
cDNA of human IP receptor was cloned and expressed in COS7 using pCDM8 vector in a similar manner to that described in the literatures [J. Biol. Chem., Vol. 269, No. 16, pp.12173-12178 (1994): Circulation, Vol. 90, No. 4, pp1643-1647 (1994) FEBS Letters 344 (1994) 74-78].
After transfection, cells which expressed human IP receptor were collected with ce l scraper at 4° C. and stored in -80° C.
The composition of assay buffer was as follows: 20 mM MES (pH 6.0), 10 mM MgCl2, 1 mM EDTA, and 0.1 mM PMSF. Frozen cells were thawed and aliquots (4.5×10^5 cells) were incubated for 60 minutes under shaking at 30° C. in plastic tubes in 100 μl of assay buffer with 10 nM of [^3 H]-iloprost in the presence or absence of the test compound (1×10^-6 M).
To determine the non-specific binding, iloprost at 10 μM was added. Each assay was preformed in duplicate. Reaction mixture was filtered through a Whatman GF/C glass filter to stop the reaction. After washing the filter with ice-cold assay buffer, the radioactivity of the filter was countered. Non-specific binding was subtracted from total binding to yield specific binding. The effect of the test compound was expressed as % inhibition of specific [^3 H]-iloprost binding.

Usually inhibition stands for the share of the control response that was lost under treatment. Lower therefore signals a weak effect. Compound `O=C(O)COc1cccc2c1CCC(O)(COC(=O)N(c1ccccc1)c1ccccc1)C2` (stereo not shown) [Test compound (1), Sodium salt of [5-(carboxymethoxy)-2-hydroxy-1,2,3,4-tetrahydro-2-naphthyl]methyl N,N-diphenylcarbamate] gave an inhibition at 0.1 µM in assay [1] (1.0 × 10^-7 M) of 97 ± 1.2%. The “R max (%): maximal decrease (maximal % change compared to mean blood pressure prior to administration)” value in assay [2] is on record as 27.5%. For `O=C(O)COc1cccc2c1CC[C@](O)(COC(=O)N(c1ccccc1)c1ccccc1)C2` [Sodium salt of (2R)-[5-(carboxymethoxy)-2-hydroxy-1,2,3,4-tetrahydro-2-naphthyl]methyl N,N-diphenylcarbamate], the “Inhibition (%) of specific [^3 H]-iloprost binding” value in the assay on human IP receptor came out at 96.5%. `O=C(O)COc1cccc2c1CCC(Cn1nc(C(c3ccccc3)c3ccccc3)ccc1=O)C2` (stereo not shown) [Test compound (2), 2-[(1,2,3,4-Tetrahydro-5-carboxymethoxy-2-naphthyl)methyl]-6-diphenylmethyl-3(2H)-pyridazinone] yielded an inhibition at 1 µM in assay [1] (1.0 × 10^-6 M) of 100 ± 0.4%.
